Measurements: US10017554B2, “Neuropeptide Y-derived peptides” (University of Copenhagen, priority 2013, dated 2018)

Test system: hippocampal neurons
Test: Neurite outgrowth in cultures of rat hippocampal neurons, embryonic day 19, 24 h
Format: cell-based
Conditions: for Neuritogenic effect 3 μM NPY fragment (% of control): 3 μM peptide; for neurite outgrowth / neuritogenic effect (in words): E19 prenatal rat hippocampal cultures
Description: When pharmacological inhibitors or antagonist are applied these are added to cultures 10 min prior to peptide addition. When soluble immunoglobulin modules are used, these are preincubated with peptide solution for 10 min before addition of the mix to the cultures. To knock down NCAM expression, the neurons were transfected with a p-GFP—V-RS vector that encodes short-hairpin RNA targeting NCAM (OriGene, Rockville, Md., USA) using a nucleofector device and a Rat Neuron Nucleofector kit (Amaxa, Gaithersburg, Md., USA). NCAM knock-out mice (C57BI/6JZtm) were a kind gift from prof. Herbert Hildebrandt (Hannover Medical School) and were created as previous described (Cremer et al., 1994). The neurons were fixed, immunostained, and micrographs were recorded and evaluated as previously described (Rønn et al., 2000; Nielsen et al., 2009). Cf. FIGS. 3-9
Neurite outgrowth in cultures of hippocampal neurons from wistar rats, embryonic stage day 19, incubated for 24 hours (37° C., 5% CO2) in supplemented Neurobasal medium with NPY fragments added; effect compared to un-stimulated controls (set to 100%). Values are mean normalized to un-stimulated controls±standard error of mean (SEM). *P<0.05, […], […], Student's t-test versus un-stimulated control.

[1] = un-stimulated controls set to 100%, mean ± SEM

Sequence	Neuritogenic effect 3 μM NPY fragment (% of control) [1]	Neuritogenic effect 1 μM NPY fragment (% of control) (1 μM peptide, un-stimulated controls set to 100%, mean ± SEM)	neurite outgrowth / neuritogenic effect (in words)
ALRHYINLITRQRA (listed as Homo sapiens) [NPY23-36 ala36]	91.7 (n = 1) % of control		
PAEDMARYYSALRHYINLITRQR (listed as Homo sapiens) [NPY13-35]	275.8 ± 31.2 % of control	164.2 ± 7.2 % of control	
RQRTILNIYHRLASYYRAMDEAPADEGPNDPKS (listed as Homo sapiens) [NPY3-35 reversed sequence, reference compound]			did not induce the same neuritogenic effects
SALRHYINLITRQR (listed as Homo sapiens) [NPY22-35]			does not
YSALRHYINLITRQR (listed as Homo sapiens) [NPY21-35]	266.4 ± 26.6 % of control		induce neurite outgrowth
